Our source for the IC50 and EC50 values is ChEMBL document CHEMBL5370637, “Receptor Interacting Ser/Thr-Protein Kinase 2 as a New Therapeutic Target” (J Med Chem, 2023).

The target in experiment [1] is T1, Receptor-interacting serine/threonine-protein kinase 2 (Homo sapiens, UniProt O43353). Put plainly: Inhibition of recombinant RIPK2 (unknown origin) expressed in insect cells using RBER-CHKtide as substrate assessed as inhibition of tyrosine autophosphorylation preincubated with compound for 15 mins followed by substrate addition and measured after 30 mins. More on the design: species or system Insect cell.
T1 sequence (O43353 whole entry): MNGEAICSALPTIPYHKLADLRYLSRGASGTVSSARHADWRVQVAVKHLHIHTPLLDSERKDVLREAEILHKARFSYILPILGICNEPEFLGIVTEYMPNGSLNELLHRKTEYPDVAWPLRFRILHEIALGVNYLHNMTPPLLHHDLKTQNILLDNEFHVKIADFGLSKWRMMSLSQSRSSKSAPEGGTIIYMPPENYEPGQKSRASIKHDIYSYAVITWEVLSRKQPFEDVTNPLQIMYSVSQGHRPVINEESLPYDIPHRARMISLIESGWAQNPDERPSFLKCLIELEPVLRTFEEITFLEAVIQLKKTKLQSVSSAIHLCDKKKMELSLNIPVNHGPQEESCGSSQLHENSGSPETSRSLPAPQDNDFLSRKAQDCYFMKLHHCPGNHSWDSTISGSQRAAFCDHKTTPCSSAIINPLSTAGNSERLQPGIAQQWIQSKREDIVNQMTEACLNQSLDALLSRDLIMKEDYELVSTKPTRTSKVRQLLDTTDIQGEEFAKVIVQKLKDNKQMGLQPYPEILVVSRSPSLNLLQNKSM

Experiment [2] addresses T1, Receptor-interacting serine/threonine-protein kinase 2. Put plainly: Inhibition of recombinant RIPK2 (unknown origin) using CRRKSLVGTPYWMAPE peptide as substrate assessed as inhibition of autophosphorylation incubated for 90 mins in presence of ATP by Transcreener ADP FP assay. Further details: species or system Insect cell.
Experiment [3] is described as follows: Inhibition of RIPK (unknown origin) by KINOMEscan assay. More on the design: species or system Homo sapiens.
A further experiment concerns the target MAP kinase p38 (Homo sapiens, UniProt O15264+Q15759+Q16539+P53778). Put plainly: Inhibition of p38 (unknown origin) by KINOMEscan assay. In kind it is protein assay.
In experiment [4] the target is Epidermal growth factor receptor (Homo sapiens, UniProt P00533). Briefly: Inhibition of EGFR (unknown origin) by KINOMEscan assay.
Epidermal growth factor receptor, sequence (P00533 whole entry): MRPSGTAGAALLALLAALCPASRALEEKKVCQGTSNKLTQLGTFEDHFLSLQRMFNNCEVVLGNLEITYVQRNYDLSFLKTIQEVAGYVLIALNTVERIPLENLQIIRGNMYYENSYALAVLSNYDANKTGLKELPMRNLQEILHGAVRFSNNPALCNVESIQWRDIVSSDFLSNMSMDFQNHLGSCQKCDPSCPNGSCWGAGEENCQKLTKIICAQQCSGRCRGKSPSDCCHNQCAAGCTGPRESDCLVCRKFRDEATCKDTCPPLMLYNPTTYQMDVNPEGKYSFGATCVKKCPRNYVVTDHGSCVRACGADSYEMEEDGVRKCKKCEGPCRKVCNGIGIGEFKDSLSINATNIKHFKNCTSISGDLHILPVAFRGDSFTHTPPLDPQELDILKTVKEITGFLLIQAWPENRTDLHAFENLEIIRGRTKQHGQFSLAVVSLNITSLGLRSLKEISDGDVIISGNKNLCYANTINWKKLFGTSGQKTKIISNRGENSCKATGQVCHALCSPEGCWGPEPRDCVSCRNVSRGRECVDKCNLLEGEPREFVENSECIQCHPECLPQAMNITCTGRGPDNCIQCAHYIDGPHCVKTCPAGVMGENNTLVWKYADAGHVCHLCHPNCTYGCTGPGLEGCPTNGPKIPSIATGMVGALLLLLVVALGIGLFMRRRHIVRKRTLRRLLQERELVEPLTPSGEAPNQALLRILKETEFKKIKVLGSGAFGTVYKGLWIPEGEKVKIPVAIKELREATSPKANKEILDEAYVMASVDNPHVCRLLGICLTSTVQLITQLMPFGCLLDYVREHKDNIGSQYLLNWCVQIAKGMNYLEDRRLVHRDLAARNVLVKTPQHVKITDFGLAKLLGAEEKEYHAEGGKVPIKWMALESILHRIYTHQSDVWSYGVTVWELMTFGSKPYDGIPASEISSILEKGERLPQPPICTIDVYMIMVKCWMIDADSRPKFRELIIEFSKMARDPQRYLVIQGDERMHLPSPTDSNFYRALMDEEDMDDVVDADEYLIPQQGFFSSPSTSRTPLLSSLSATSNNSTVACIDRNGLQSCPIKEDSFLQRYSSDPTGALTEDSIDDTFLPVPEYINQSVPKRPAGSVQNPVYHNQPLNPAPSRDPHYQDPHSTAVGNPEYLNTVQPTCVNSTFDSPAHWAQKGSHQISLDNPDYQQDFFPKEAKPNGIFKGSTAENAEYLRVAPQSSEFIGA
Experiment [5] has as its target T1, Receptor-interacting serine/threonine-protein kinase 2. Put plainly: Inhibition of human RIPK2 assessed as inhibition of autophosphorylation incubated for 45 to 60 mins in presence of 32P-gamma-ATP by immunoprecipitation analysis.
A short description of experiment [6]: Induction of apoptosis in human GBM1 cells incubated for 48 hrs by immunofluorescent analysis. In kind it is functional, cell-based. To be noted: GBM1, 48 h.
In experiment [7] the target is T1, Receptor-interacting serine/threonine-protein kinase 2. Briefly: Inhibition of RIPK2 (unknown origin).
Experiment [8] has the same target.

The IC50 is the concentration that gives 50% inhibition. The term EC50 denotes the midpoint of the concentration-response curve. A higher EC50 goes with a need for much substance.

As to `Clc1cc2cc(c1)-c1cnn3ccc(nc13)NCCOCCO2`, the IC50 in experiment [1] was 5.3 nM.
Consider `Cc1ccc(-c2nn(C(C)(C)CNC(=O)c3ccncc3)c3ncnc(N)c23)cc1`, for which the IC50 is 134 nM in experiment [2], above 10000 nM in experiment [3], above 10000 nM against MAP kinase p38 and above 10000 nM in experiment [4].
For `Cc1ccc(C(=O)Nc2cccc(-c3nccn3C)c2)cc1NC(=O)c1ccccc1`, the IC50 in [5] was found to be 10 nM.
As to `c1cc2cc(n1)NCCOCCNc1ccn3ncc-2c3n1`, the IC50 in experiment [1] was determined as 14.1 nM.
`Cc1n(Cc2ccc(F)cc2)c2c([n+]1Cc1ccccc1)C(=O)c1ccccc1C2=O` returned an EC50 in experiment [6] of 68 nM.
In the case of `N=C(N)NCCC[C@@H]1NC(=O)/C(=C/c2c[nH]c3cc(Br)ccc23)NC1=O` [BARETTIN], 8000 nM corresponded to half-maximal inhibition in experiment [7] (IC50).
In the case of `O=[N+]([O-])c1ccc(-c2nc(-c3ccncc3)c(-c3ccc(F)cc3)[nH]2)cc1` [PD-169316], the IC50 in experiment [8] stood at 70 nM.
The same measure, in the same setting: the result for `Nc1nccc(-c2c(-c3ccc(F)cc3)ncn2C2CCNCC2)n1` [SB-220025] reads 700 nM.
